# Results: US20230406906A1, “SERPIN PEPTIDES AND METHODS OF USING THE SAME” (SERPIN PHARMA, LLC, priority 2022, published 2023)
# Experiments:
# NFκB [1] = experiment: NFκB reporter assay (THP1-XBlue-MD2-CD14 cells, LPS, SEAP read-out); assay type: cell-based; details: without LPS
# NFκB [2] = experiment: as above; assay type: cell-based; details: peptide 50 μg/ml before LPS 5 ng/ml, overnight
# Protocol: The reporter cells (THP1-XBlue-MD2-CD14 cells) were treated with each peptide (50 μg/ml) before being insulted with LPS (5 ng/ml) and incubated overnight. The NFκB inducible Secreted Embryonic Alkaline Phosphatase (SEAP) was measured in the supernatant and read for absorbance.
# C57BL/6J mice = experiment: Intraplantar capsaicin model of acute nociception; assay type: in vivo; details: male mice, 2 μg/g 1 h before capsaicin, 10 min
# Protocol: For the capsaicin studies, male (n=41) and female (n=37) mice were acclimated to the behavior testing facility for at least 1 h. Capsaicin was dissolved in 20% (2-hydroxypropyl)-β-cyclodextrin (Sigma-Aldrich, St. Louis, MO, USA) solution. […] Subsequently, 10 μl of 2 μg/μl capsaicin solution was injected into the plantar area of left hind paw. Immediately after capsaicin injection, mice were placed in a plexiglass box. Two observers, blinded to treatments, recorded the time spent licking and flinching the left hind paw over 10 min.
# LRP1 = target: T1, LRP1 (Rattus norvegicus, UniProt G3V928); experiment: Cell signaling analysis in PC12 cells (phospho-ERK1/2, phospho-Akt immunoblot); assay type: cell-based
# T1 construct: host or cells: rat PC12 cells
# T1 sequence (G3V928 20-3944 limits assumed): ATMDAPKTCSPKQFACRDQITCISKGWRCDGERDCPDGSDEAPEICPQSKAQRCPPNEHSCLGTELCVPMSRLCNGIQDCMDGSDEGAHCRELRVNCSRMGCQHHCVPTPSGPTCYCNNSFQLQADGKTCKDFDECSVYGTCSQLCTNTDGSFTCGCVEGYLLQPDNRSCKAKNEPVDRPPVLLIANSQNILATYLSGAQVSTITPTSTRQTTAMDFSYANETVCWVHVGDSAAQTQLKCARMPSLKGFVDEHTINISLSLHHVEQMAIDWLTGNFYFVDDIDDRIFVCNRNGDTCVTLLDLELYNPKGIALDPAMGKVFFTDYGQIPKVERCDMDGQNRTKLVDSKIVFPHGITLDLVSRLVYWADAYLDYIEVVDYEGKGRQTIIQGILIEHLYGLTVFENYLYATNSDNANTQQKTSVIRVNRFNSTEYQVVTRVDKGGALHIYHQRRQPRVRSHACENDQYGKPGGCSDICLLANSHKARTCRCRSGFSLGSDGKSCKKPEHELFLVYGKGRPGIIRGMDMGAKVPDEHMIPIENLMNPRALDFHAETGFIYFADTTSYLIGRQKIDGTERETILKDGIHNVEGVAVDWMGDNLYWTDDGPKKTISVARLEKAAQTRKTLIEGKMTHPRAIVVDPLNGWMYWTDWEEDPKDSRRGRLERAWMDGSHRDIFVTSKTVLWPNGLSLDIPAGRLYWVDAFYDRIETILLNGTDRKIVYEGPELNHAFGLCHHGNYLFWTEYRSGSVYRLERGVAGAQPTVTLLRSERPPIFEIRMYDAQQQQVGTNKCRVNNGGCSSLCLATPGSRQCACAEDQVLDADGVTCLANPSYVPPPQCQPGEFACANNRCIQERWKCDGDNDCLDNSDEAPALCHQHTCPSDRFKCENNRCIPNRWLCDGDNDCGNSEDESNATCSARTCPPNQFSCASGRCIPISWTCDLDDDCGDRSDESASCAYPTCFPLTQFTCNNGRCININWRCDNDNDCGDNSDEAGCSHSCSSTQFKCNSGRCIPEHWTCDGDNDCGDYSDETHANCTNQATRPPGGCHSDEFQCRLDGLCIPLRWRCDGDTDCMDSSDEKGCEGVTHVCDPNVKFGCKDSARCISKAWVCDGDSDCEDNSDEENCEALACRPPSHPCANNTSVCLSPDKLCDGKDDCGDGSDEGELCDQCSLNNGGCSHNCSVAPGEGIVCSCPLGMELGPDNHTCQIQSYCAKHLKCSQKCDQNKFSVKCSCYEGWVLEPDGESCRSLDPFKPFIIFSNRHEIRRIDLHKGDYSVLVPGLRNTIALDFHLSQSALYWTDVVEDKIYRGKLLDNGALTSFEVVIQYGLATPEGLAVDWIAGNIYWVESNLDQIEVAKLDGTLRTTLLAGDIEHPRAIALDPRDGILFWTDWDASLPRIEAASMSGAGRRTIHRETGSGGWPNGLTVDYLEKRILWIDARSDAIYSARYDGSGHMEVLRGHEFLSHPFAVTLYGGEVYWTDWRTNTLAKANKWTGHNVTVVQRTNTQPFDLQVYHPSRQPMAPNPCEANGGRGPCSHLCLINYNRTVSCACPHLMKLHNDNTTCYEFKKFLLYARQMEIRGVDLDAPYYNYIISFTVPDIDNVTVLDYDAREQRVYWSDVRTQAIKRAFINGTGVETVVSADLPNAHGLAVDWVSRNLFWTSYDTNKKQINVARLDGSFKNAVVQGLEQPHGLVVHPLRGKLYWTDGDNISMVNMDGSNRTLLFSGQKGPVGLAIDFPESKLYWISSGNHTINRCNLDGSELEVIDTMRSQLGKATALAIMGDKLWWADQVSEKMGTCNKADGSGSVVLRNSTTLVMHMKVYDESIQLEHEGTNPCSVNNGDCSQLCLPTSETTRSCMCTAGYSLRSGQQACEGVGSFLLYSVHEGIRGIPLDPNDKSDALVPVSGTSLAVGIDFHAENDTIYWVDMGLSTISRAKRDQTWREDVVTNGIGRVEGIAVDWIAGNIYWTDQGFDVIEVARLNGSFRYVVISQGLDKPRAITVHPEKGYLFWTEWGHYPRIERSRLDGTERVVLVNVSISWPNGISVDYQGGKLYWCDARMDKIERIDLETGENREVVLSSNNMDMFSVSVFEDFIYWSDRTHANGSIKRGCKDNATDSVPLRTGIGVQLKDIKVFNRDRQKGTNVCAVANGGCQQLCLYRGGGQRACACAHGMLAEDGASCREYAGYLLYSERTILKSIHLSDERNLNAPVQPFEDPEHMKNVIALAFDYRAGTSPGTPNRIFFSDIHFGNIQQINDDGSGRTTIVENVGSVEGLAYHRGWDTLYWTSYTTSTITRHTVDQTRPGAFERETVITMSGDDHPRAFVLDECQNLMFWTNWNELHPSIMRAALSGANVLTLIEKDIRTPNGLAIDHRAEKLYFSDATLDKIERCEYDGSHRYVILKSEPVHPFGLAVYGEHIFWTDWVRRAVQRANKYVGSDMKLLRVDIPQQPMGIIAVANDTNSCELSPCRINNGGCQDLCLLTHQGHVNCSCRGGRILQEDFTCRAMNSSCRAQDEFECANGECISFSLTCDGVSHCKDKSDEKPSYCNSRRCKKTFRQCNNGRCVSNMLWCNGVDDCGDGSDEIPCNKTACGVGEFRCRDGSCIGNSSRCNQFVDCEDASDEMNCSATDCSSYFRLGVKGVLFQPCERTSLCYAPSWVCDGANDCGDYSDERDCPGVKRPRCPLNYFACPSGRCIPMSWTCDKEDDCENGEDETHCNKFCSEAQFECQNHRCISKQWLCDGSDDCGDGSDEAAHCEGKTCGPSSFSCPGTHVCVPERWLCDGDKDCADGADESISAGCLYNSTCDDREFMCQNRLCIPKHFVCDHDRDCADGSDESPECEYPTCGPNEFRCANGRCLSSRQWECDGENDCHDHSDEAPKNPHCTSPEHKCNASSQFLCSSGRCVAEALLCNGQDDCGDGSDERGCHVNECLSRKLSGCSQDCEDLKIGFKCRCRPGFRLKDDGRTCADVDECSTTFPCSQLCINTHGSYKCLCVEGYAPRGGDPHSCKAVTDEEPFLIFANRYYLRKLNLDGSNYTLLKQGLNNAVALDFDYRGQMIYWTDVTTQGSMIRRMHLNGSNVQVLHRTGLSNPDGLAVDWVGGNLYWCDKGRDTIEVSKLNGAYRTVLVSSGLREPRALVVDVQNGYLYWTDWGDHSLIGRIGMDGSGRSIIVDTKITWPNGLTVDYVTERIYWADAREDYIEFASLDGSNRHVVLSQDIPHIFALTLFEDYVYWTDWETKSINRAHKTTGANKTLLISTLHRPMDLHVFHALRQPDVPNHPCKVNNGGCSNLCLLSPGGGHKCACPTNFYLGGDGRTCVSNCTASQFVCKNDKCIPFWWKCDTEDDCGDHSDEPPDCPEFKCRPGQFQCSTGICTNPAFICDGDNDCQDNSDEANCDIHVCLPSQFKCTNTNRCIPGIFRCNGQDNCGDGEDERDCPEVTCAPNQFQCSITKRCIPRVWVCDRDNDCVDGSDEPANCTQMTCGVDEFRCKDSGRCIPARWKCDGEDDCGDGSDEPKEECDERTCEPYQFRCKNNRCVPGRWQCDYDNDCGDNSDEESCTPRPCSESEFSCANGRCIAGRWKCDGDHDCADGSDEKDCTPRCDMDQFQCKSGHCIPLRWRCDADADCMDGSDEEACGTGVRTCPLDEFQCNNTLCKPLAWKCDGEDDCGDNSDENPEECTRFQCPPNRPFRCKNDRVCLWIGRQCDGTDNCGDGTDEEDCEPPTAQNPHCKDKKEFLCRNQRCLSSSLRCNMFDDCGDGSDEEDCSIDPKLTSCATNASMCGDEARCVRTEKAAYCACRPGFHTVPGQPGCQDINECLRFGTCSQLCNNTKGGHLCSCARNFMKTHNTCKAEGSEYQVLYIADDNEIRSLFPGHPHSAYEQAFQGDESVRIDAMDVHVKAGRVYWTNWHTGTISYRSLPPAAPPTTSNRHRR
# T1 sequence (G3V928 3945-4545 partner limits assumed): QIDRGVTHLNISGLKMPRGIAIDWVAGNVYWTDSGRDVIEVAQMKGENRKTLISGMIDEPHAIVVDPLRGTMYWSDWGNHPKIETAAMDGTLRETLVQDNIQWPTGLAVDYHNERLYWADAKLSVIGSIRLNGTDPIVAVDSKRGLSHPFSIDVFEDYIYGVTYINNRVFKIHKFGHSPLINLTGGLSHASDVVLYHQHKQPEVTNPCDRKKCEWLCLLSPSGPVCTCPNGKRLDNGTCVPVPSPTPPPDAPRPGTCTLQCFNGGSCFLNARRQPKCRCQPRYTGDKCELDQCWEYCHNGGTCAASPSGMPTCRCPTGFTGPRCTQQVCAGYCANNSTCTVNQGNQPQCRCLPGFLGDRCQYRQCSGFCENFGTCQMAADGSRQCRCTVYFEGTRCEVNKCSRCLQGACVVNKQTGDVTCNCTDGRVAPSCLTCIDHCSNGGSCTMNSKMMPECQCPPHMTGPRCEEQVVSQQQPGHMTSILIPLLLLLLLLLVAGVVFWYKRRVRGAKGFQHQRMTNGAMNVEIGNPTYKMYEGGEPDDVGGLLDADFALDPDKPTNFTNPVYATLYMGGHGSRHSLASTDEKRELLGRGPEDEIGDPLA
# Protocol: Cell signaling analysis: Rat PC12 cells were purchased from ATCC (CRL-1721). PC12 cells were maintained in high glucose DMEM (Gibco, USA) containing 10% heat-inactivated FBS (Gibco, USA), 5% HyClone heat-inactivated horse serum (Cytiva, USA), penicillin (100 units/ml) and streptomycin ([…]) in 6-well plates that were pre-coated with 0.01 mg/ml type IV collagen (Sigma-Aldrich, St. Louis, MO, USA). Cells were transferred to serum-free medium (SFM) 4 h prior to adding effectors, and then treated with SP163M (2.4, 24 or 240 nM); EI-tPA (12 nM), NGF (0.36 nM), or vehicle (PBS) for 10 min. In some cases, cells were pre-incubated with the competitive antagonist of LRP1, GST-RAP (150 nM) for 15 min or electroporated using the Rat Neuron Nucleofector Amaxa Kit (Lonza Biosciences) and incubated with siRNA to silence LRP1 expression (siLRP1; M-094191-01-0010, Dharmacon) for 48 h. Control cells were transfected with non-targeting control (NTC) siRNA (NTC; D-001810-10-05, Dharmacon). Cells were rinsed with ice-cold PBS and proteins were extracted in RIPA buffer (20 mM sodium phosphate, 150 mM NaCl, pH 7.4, 1% Triton X-100, 0.5% sodium deoxycholate, 0.1% SDS) supplemented with protease and phosphatase inhibitors (Roche Diagnostics, USA). After 30 min on ice, lysates were centrifuged at 15000×g for 5 min, supernatant collected and stored at −20° C. Equal amounts of protein from cell lysates (20 μg), as determined by BCA Protein Assay (ThermoFisher Scientific, Waltham, MA, USA), were subjected to 10% SDS-PAGE and electro-transferred to nitrocellulose membranes. The membranes were blocked with 5% nonfat dried milk and then incubated with primary anti-phospho-AKT (Cell Signaling Technology, Danvers, MA, USA; cat #9271S; 1:1000), anti-phospho-ERK1/2 (Cell Signaling Technology, Danvers, MA, USA; cat #9101S; 1:1000), anti-LRP1 (Cell Signaling Technology, Danvers, MA, USA; cat #64099S; 1:1000) or anti total-ERK1/2 (Cell Signaling Technology, Danvers, MA, USA; cat #91012S; 1:1000). Immunoblots were developed using Radiance, Radiance Q, and Radiance Plus chemiluminescent substrates and imaged using a BioRad ChemiDoc Imaging System (Bio-Rad, Hercules, CA, USA).
# [3] = target: LRP1 (low-density lipoprotein receptor-related protein 1) on rat PC12 cells (rat) (UniProt G3V928); experiment: cell-based or functional assay
# STAT6 = experiment: IL-13 stimulated STAT6 phosphorylation in esophageal EPC2 cells (western blot); assay type: cell-based, Human; details: 30 minutes post IL-13 induction
# Protocol: Esophageal EPC2 cells were treated with vehicle (ddw), A1AT or SP163M. Cells were collected at time-points indicated and western blot analysis of phospho-specific STAT6 was analyzed. […] Using CRISPER/CAS9 technology, an LRP1 knockout esophageal EPC2 cell line was created.
# CCL24 = experiment: OVA-challenge allergic inflammation model, BALF CCL24 via ELISA; assay type: in vivo; details: treated during OVA challenge phase, sensitized mice
# Protocol: (§1) Mice were subjected to the OVA-challenge allergic inflammation model and treated with vehicle or SP16 during the challenge phase. The bronchoalveolar lavage fluid (BALF) was analyzed for cytokines via ELISA.
# IL-1a = experiment: OVA-challenge allergic inflammation model, BALF IL-1a via ELISA; assay type: in vivo; details: treated during OVA challenge phase, sensitized mice
# Protocol: as §1
# IL-4 = experiment: MC903 AD model, IL-4 in ear lysate via ELISA; assay type: in vivo, mice; details: topical
# Protocol: (§2) Mice were treated with SP16 in 70% EtOH (MC903+SP16) or drug vehicle (MC903). Normal control (NC) mice were treated with EtOH only. Ears were measured for PAR2 protein expression through western blot analysis (quantitative analysis after normalization to beta-actin shown) (n=3-5). TSLP was measured in both the ears and serum by ELISA (N=3-5). Scratching was assessed over a 3 minute period after a 5-minute acclimatization period and the number of scratches are shown (n=3). IL-4 was measured in ear lysate via ELISA (N=3-5).
# mice [4] = experiment: OVA-induced allergic inflammation model, eosinophils in BALF by flow cytometry; assay type: in vivo
# Protocol: FIG. 15A: mice were subjected to the OVA-challenge allergic inflammation model and treated with vehicle, SP16, or A1AT during the challenge phase. The BALF was collected and analyzed for the percent of eosinophils and compared to saline (non-challenged) mice, vehicle OVA induced mice, or SP16 treated OVA induced mice.
# The impact of SP16 treatment on eosinophilic infiltration in mice was assessed using the OVA-induced allergic inflammation model. The number of eosinophils in the bronchoalveolar lavage fluid was quantified by flow cytometry.
# IL-2 = experiment: OVA-challenge allergic inflammation model, BALF IL-2 via ELISA; assay type: in vivo; details: treated during OVA challenge phase, sensitized mice
# Protocol: as §1
# TSLP [5] = experiment: Poly I:C-induced TSLP production by SPINK7 knockout EPC2 cells (ELISA); assay type: cell-based, Human; details: SPINK7 knockout esophageal cells, Poly I:C 5 μg/ml, 8 hours
# Protocol: FIG. 12A: Poly I:C-induced TSLP production by SPINK7 knockout EPC2 cells (Human esophageal epithelial cells). SPINK7 KO cells and control cells were plated in high calcium and high density, for 48 hours before being treated with SP16 or 7G and Poly I:C (5 μg/ml, or untreated) for 8 hours. TSLP production in the supernatant was measured by ELISA. FIG. 12B: primary esophageal epithelial cells (EPC2) were treated with SP16 and then stimulated with IL-13, a TH2 response mediated cytokine, to induce CCL26.
# SP16 reduces several key cytokines involved in allergic responses. Upon knockout of SPINK7, esophageal epithelial cells release exacerbated levels of TSLP. TSLP is a key mediator of immune cell responses upon activation to an insult such as allergens.
# CCL26 = CCL26 release by esophageal epithelial cells (EPC2); assay type: cell-based, Human
# mice [6] = experiment: MC903 AD-like inflammatory skin model, topical treatment (dermatitis score, ear volume, scratching); assay type: in vivo
# Protocol: SP16 (in 70% ethanol) was applied topically to the ears on the days of the MC903 applications (MC903+SP16). Drug vehicle (70% EtOH) was applied to control animals (MC903) and normal control animals (NC) received EtOH in place of MC903. In-life parameters: Dermatitis score (FIG. 16A) and ear volume (FIG. 16B) measured on days 0, 3, 7, 9, 11 and 14. […] Clinical Dermatitis Score (score 0-4 for each parameter)—erythema, scale/dryness, edema, excoriation/erosion (total score 0-16).
# as §2
# PAR2 = experiment: MC903 AD model, PAR2 protein expression in ears (western blot); assay type: in vivo, mice; details: topical, normalized to beta-actin
# Protocol: as §2
# TSLP [7] = experiment: MC903 AD model, TSLP in ears and serum by ELISA; assay type: in vivo; details: topical, vs MC903 treated mice
# Protocol: as §2
substance,measurement,setting,value
"SIPPEVKFNKPFVFLMIEQNTKSPLFMGKVVNP (SIPPEVKFNKPFVFLMIEQNTKSPLFMGKVVNP; SP16 peptide core sequence including the LRP1 binding site; listed as Homo sapiens) [SP8, reference compound]",NFkB induction by the peptide alone,NFκB [1],showed NFkB inducible properties without the need for LPS
same,NFκB activity (NFκB inducible SEAP in supernatant),NFκB [2],neither the scrambled core control peptide nor the AAT 0-36 fragment decreased the NFκB activity
"EI-tPA: Recombinant human EI-tPA, derivative of tissue-type plasminogen activator, known LRP1 agonist [reference compound]",capsaicin induced acute pain-related behavior (time spent licking),C57BL/6J mice,blocked the capsaicin induced acute pain-related behavior
same,activation of ERK1/2 in cells transfected with LRP1-specific siRNA,LRP1; 48 h after transfection,ERK1/2 was not activated
same,activation of ERK1/2 in cells transfected with NTC siRNA,LRP1; 48 h after transfection,also robustly activated ERK1/2
Receptor associated protein expressed as a glutathione-S-transferase fusion protein (GST-RAP),block of SP163M-induced phospho-Akt and phospho-ERK1/2 in PC12 cells (immunoblot); concentration of RAP used,[3],150 nM
"FPKMVPQFNTELKIFPEVNIK (FPKMVPQFNTELKIFPEVNIK) [SP34, reference compound]",NFκB activity (NFκB inducible SEAP in supernatant),NFκB [2],neither the scrambled core control peptide nor the AAT 0-36 fragment decreased the NFκB activity
"NGF: NGF-β purchased from Sigma, cell signaling control [reference compound]",activation of ERK1/2 (cell signaling control),"LRP1; 0.36 nM, 10 min",also activated ERK1/2
V R F N R P F L (VRFNRPFL) [SP31],NFκB activity (NFκB inducible SEAP in supernatant),NFκB [2],the anti-inflammatory activity of the peptide was lost
R R R V K F N K P F V F L M R R R (RRRVKFNKPFVFLMRRR) [SP22],NFκB activity (NFκB inducible SEAP in supernatant),NFκB [2],the NFκB activity was significantly reduced
"A1AT: alpha-1 antitrypsin, the prototypical SERPIN",STAT6 phosphorylation,STAT6,STAT6 was phosphorylated in vehicle and A1AT treated cells
V K F N K P F V F L M (VKFNKPFVFLM) [SP20],NFκB activity (NFκB inducible SEAP in supernatant),NFκB [2],did not have an inhibitory effect
R R R V R F N R P F L R R R (RRRVRFNRPFLRRR) [SP32],NFκB activity (NFκB inducible SEAP in supernatant),NFκB [2],could not be restored with the poly arginine flanks
RRRVKFNKPFVFLMIEQNTKRRR (RRRVKFNKPFVFLMIEQNTKRRR) [SP21],NFκB activity (NFκB inducible SEAP in supernatant),NFκB [2],NFkB inhibition increased as well relative to SP16
V K F N K P F V F L M I E Q N T K (VKFNKPFVFLMIEQNTK; SP16 peptide core sequence including the LRP1 binding site; listed as Homo sapiens),CCL24 in BALF,CCL24,significantly reduces CCL24 following OVA-challenge in sensitized mice
same,activation of ERK1/2 over time,"LRP1; 240 nM, 0-30 min",robustly activated ERK1/2 from 5 to 30 min
same,lowest concentration activating phospho-ERK1/2,LRP1; 10 min,24 nM
same,activation of ERK1/2 in cells transfected with NTC siRNA,LRP1; 48 h after transfection,ERK1/2 was robustly activated
same,IL-1a in BALF,IL-1a,significantly reduces IL-1a following OVA-challenge in sensitized mice
same,IL-4 release in the skin tissue,IL-4,significantly reduced in SP16-treated animals
same,eosinophil infiltration into the lungs (BALF),mice [4],significantly (p=0.04) reduces eosinophil infiltration into the lungs
same,IL-2 in BALF,IL-2,significantly reduces IL-2 following OVA-challenge in sensitized mice
same,Poly I:C mediated TSLP release,TSLP [5],effective in significantly reducing Poly I:C mediated TSLP and CCL26 release
same,CCL26 release,CCL26; EPC2 cells stimulated with IL-13,significantly reduced CCL26 release dose dependently
same,Poly I:C mediated CCL26 release,CCL26; SPINK7 knockout esophageal cells,effective in significantly reducing Poly I:C mediated TSLP and CCL26 release
same,NFκB activity (NFκB inducible SEAP in supernatant),NFκB [2],capable of reducing NFκB activity
same,"disease improvement (dermatitis score, ear volume)","mice [6]; topical solution (1%) in 70% ethanol, 14-day period, vs vehicle",a significant improvement in disease vs. vehicle-treated mice
same,pruritis (number of scratches),"mice [6]; topical, vs vehicle (MC903) treated mice",significantly reduces pruritis compared to vehicle (MC903) treated mice
same,PAR2 protein expression in ears,PAR2,PAR2 and TSLP inhibition
same,systemic (serum) and local (ear) TSLP,TSLP [7],a significant reduction in systemic (serum) and local (ear) TSLP compared to MC903 treated mice
